Patent publication US20250120958A1, “Treatment of GM2 Gangliosidosis” (Azafaros B.V., priority 2022, published 2025)

What was measured:
[1] = system: Sandhoff mice; conditions: Aspirin combined with substrate reduction therapy; cited from earlier work
[2] = Dynamic vapour sorption (DVS); assay type: physicochemical; conditions: high relative humidity
Description: In addition, the behaviour of the sample of the Form 3 crystalline form of compound of formula (I) obtained by equilibration with ethyl acetate was investigated under variable water vapour pressures (DVS measurement). At the highest relative humidity of 95% the sample absorbed about 1.2% of water that was released when the relative humidity was returned to the 50% RH. The amount of absorbed water is small, and the water sorption is reversible. […] For Form 2, at high relative humidity the sample absorbed about 18% of water; however, most of the absorbed water was released when the relative humidity was returned to the 50% RH.
Dynamic vapour sorption (DVS) measurements were performed with an SPS11-100n “Sorptions Prufsystem” from ProUmid (formerly “Projekt Messtechnik”), August-Nagel-Str. 23, 89079 Ulm (Germany). About 5 mg to 20 mg of sample was put into an aluminum sample pan. Humidity change rates of 5% per hour were used.

[3] = system: Sandhoff mouse model (Hexb (−/−)); experiment: Survival study in Sandhoff mouse model; assay type: in vivo; conditions: Hexb (−/−) mice, treated vs vehicle/untreated
Description: (strain: B6; 129S4-Hexbtm1Rlp/J). The mouse line was maintained by crossing homozygous −/− males with heterozygous females (generating litters with 50%−/− and 50%+/−) under specific pathogen-free conditions. All mice were housed in individual, ventilated cages (IVCs) with 12-h light/dark cycles with food and water ad libitum. Young-adult mice of the same genetic C57BL/6 background were from Jackson Laboratories. Breeding of Hexb mutants will target needs of the “Long-term” cohorts first, followed by the “16-week” biomarker study.
Cohort 1: There were a total of 6 dose groups and 2 vehicle groups using both Hexb+/− and Hexb−/− animals. […] Dosing occurred daily from day 30 to day 170, unless the animal was prematurely euthanized per protocol.
A subsequent study to explore lower doses was also performed (in the same manner as in Example 2) in which doses of 0.02, 0.06, 0.2 and 0.5 mg/kg/day were used. […] It is unclear why the 0.06 mg/kg/day had less survival as formulations were checked and confirmed accurate dosing (internal data).

## CC(=O)Oc1ccccc1C(=O)O [Aspirin]
[1]
  maximum improvement of survival: 73%
  synergy, improvement in survival: 11%

## OC[C@H]1[C@@H](O)[C@H](O)[C@@H](O)CN1CCCCCOCc1ccc(-c2ccccc2)c(F)c1 [Form 2]
[2]
  water absorbed (DVS): about 18%

## OC[C@H]1[C@@H](O)[C@H](O)[C@@H](O)CN1CCCCCOCc1ccc(-c2ccccc2)c(F)c1 [compound of formula (I)]
[3]
  increase in survival / life expectancy: at least 22%
